In patent US12404252B2, “Salt of 2-amino-2-(2-(1-decyl-1H-1,2,3-triazol-4-yl)ethyl)propane-1,3-diol, and pharmaceutical composition containing same” (NEXTGEN BIOSCIENCE CO., LTD, priority 2021, dated 2025):
Read-outs that look alike come from different tables or passages of the source.

Assays:
[1] = Standard stock solution stability, 40° C./75±5% RH; assay type: physicochemical; details: 40° C./75% RH
Experimental: The stability of the crystalline compound was examined at 40° C./75±5% RH. Physical stability was examined through comparative XRPD analysis before and after the test, and chemical stability was examined by HPLC method. The experimental conditions used in the stability test for Compound 1a and the test results are as follows.
40° C./75±5% RH: Conditions in which the vial was open and upright.
(§1) A required amount (˜1 mg) of solid material was dissolved in 1 mL of a diluent (1:1 methanol/water), and the prepared solution was analyzed by HPLC.

[2] = Standard stock solution stability, 60° C./75±5% RH; assay type: physicochemical; details: 2 weeks under 60° C./75±5% RH
Experimental: The stability of the crystalline compound was under 60° C./75±5% RH conditions, and the purity thereof was examined by HPLC method. The experimental conditions used in the stability test for Compound 1a and the test results are as follows.
60° C./75±5% RH: Conditions in which the vial was open and upright.
as §1

Photostability test = assay type: physicochemical
Experimental: For a photostability test, 10 mg of Compound 1a was exposed to 1.2 million lux hours of ultraviolet and visible light at room temperature. For an oxidation stability test, 0.2 mL of 30% H2O2 and 1 mg of Compound 1a were placed in a 2-mL vial and stored at 25° C. for up to 24 hours. The photostability and oxidation stability conditions used to evaluate the fumarate salt of Compound 1 and the evaluation results are as follows.

[3] = pH stability and salinity stability, 40±2° C.; assay type: physicochemical
[4] = Hygroscopicity test by DVS; assay type: physicochemical; details: for DVS remark (adsorption at 90% RH): water adsorption at 90% RH
Text: Dynamic vapor sorption (DVS) is a method that has been used for a long time to investigate the interactions between active pharmaceutical ingredients (APIs), and pharmaceutical preparations and water. Here, to analyze the water absorption rate of a sample at a specific temperature, measurements are made by exposing the sample to the desired relative humidity using a DVS water sorption analyzer (hygroscopicity analyzer) until the change in weight of the sample stabilizes.

[5] = Corrosion of a sample stored together with the substance at 60° C.; assay type: physicochemical; details: stored together with the sample for 2 weeks at 60° C.
Experimental: FIG. 12 depicts photograph showing the results of checking the degree of corrosion of a sample after storing each of the free base of Compound 1, Compound 1a, and a hydrochloride salt of Compound 1 together with the sample under 60° C. conditions for 2 weeks.

[6] = Oxidation stability test (30% H2O2); assay type: physicochemical
[7] = Solubility in aqueous media (HPLC); assay type: physicochemical; details: same conditions as Compound 1a, some samples
Experimental: The solubility of Compound 1a prepared in Example 1 was evaluated in several different media, including pH 1.2 hydrochloric acid buffer, pH 3.0 citrate buffer, pH 4.7 acetate buffer, pH 6.8 phosphate buffer, simulated gastric fluid, fasted-state simulated intestinal fluid, fed-state simulated intestinal fluid, and water. About 2.17 mg of sample (based on the free base of Compound 1) for each medium was taken into a 2-mL transparent glass vial and […] of medium was added (constituents of the salt were considered Compound 1: counterion=1:0.5; target concentration: 2 mg/mL). The mixture was stirred using a magnetic stirrer at 250 RPM for 24 hours at 25° C. Next, the pH and appearance of the mixture were recorded and the mixture was filtered through a MultiScreen® HTS-HV 96-well plate (manufactured by Merck; 0.45-μm hydrophilic, low-protein-binding Durapore® membrane). Solubility was determined using HPLC, and a calibration curve was created by injecting a known concentration of Compound 1a. The filtered sample was injected (diluted appropriately as necessary) and the concentration of Compound 1a (mg/mL) in the filtrate was calculated from the calibration curve (taking salt coefficient into account). The analysis results are as follows.

[8] = pH stability and salinity stability, 40±2° C.; assay type: physicochemical; remark: listed apart in the source
Experimental: pH and salinity stability tests for the hemifumirate salt of Compound 1 were performed at an initial target concentration of 2 mg/mL. The pH and salinity stability conditions used to evaluate the hemifumirate salt of Compound 1 and the evaluation results are as follows.
• 40±2° C.: Conditions in which the vial was capped and upright • Storage container for stability: 2-mL screw neck clear glass vial (manufactured by La-Pha-Pack) • Target concentration: ˜ 2 mg/mL (adding the sample to 1 mL of medium, followed by vortexing for 30 seconds) • 500 μL of the test mixture was dissolved in 500 μL of a diluent (1:1 methanol/water), and the prepared solution was analyzed by HPLC without filtration.

pKa of the free base = assay type: physicochemical; details: natural conditions
Experimental: The method for preparing the salt of the present invention and the process of selecting the salt thereby are as follows. […] Specifically, acids that were appropriate for matching the pKa of the free base of Compound 1 described above were calculated by computer, and these acids were mainly identified as acids having a pKa of about 2 to 5.

[9] = molecular target: hERG potassium ion channel (Homo sapiens, UniProt Q12809)
Chain of hERG potassium ion channel (Q12809 whole entry): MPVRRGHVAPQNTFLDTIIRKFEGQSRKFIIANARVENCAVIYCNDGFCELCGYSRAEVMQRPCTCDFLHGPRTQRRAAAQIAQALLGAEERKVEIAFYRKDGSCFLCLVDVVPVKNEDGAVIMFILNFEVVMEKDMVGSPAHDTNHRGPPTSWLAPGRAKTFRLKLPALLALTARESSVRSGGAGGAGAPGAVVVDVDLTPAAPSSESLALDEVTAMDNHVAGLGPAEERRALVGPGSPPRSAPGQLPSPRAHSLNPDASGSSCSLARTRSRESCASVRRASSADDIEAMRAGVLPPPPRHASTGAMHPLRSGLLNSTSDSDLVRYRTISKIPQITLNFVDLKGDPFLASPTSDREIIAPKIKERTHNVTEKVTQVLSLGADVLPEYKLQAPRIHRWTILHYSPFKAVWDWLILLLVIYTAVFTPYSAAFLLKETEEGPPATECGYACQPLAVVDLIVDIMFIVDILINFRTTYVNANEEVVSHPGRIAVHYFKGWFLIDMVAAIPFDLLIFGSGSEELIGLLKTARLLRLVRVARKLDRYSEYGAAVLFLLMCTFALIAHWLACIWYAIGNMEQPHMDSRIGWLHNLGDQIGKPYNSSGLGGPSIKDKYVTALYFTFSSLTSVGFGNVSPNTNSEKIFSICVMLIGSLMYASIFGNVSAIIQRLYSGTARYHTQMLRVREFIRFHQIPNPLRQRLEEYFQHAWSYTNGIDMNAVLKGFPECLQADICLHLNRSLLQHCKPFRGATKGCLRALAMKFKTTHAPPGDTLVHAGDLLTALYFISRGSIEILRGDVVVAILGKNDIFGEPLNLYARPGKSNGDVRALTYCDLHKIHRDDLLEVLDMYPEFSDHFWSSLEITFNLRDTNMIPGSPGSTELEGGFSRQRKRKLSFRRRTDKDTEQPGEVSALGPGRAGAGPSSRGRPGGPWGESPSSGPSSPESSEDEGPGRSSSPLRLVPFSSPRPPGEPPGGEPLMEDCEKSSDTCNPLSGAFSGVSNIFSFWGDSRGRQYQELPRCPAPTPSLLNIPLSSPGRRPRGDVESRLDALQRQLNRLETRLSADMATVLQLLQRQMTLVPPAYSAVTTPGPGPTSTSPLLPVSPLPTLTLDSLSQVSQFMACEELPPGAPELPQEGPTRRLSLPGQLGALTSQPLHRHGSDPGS

[10] = test system: dextran sulfate sodium (DSS)-induced colitis model; experiment: DSS-induced colitis mouse model, disease activity index; assay type: in vivo; details: DSS mice
Experimental: The effectiveness of Compound 1a against inflammatory bowel disease was evaluated using the dextran sulfate sodium (DSS)-induced colitis model. In the mouse model, inflammatory bowel disease was induced by administering DSS to mice at a concentration of 2.5% via drinking water. Mice were divided into a test group administered Compound 1a, a positive control group administered ozanimod or MTX (methotrexate), a vehicle group, and a normal control group, and each group had n=10. Compound 1, a compound of the present invention, was orally administered at doses of 5 and 10 mg/kg once a day for 7 days to the inflammatory bowel disease-induced model, and ozanimod as a positive control was administered orally at a dose of 5 mg/kg once a day, and MTX (methotrexate) as a positive control was administered intraperitoneally at a dose of 3 mg/kg three times a week.
DAI represents the total score of weight loss relative to initial weight, stool consistency, and degree of intestinal bleeding of the mouse. The criteria for calculation of DAI are shown in Table 10 below, and DAI was evaluated on days 0, 1, 2, 3, 4, 5, 6, 7, and 8.

[11] = test system: adenine-induced chronic kidney disease model; experiment: Adenine-induced chronic kidney disease model; assay type: in vivo; details: adenine-induced CKD mice, 10 mg/kg/day orally, 3 weeks
Experimental: The antifibrotic effect of Compound 1a was evaluated using an adenine-induced chronic kidney disease model. 0.5% adenine (in 0.5% CMC) was orally administered to mice for 4 weeks to induce chronic kidney disease, and Compound 1a at 10, 30, and 90 mg/kg/day and the positive control substance telmisartan 10 mg/kg/day were administered orally to the mice for 3 weeks, followed by measurement of serum creatinine, serum BUN, and kidney hydroxyproline, and histopathology. In addition, the tubular-interstitial index value was determined based on the above measurement results.

[12] = test system: unilateral ureteral obstruction (UUO) model; experiment: Unilateral ureteral obstruction (UUO) renal fibrosis model; assay type: in vivo; details: UUO mice, 30 mg/kg/day orally, 2 weeks
Experimental: The antifibrotic effect of Compound 1a in renal disease was evaluated using the unilateral ureteral obstruction (UUO) model, which is a renal fibrotic disease model. Kidney fibrosis was induced by unilateral ureteral obstruction of mice, and then Compound 1a at 10, 30, and 90 mg/kg/day and the positive control substance telmisartan at 30 mg/kg/day were orally administered to the mice once a day for 2 weeks.

CCCCCCCCCCn1cc(CCC(N)(CO)CO)nn1.Cl [Comparative Example 1, reference compound]
Purity % ([1]; 1-week): 99.00%
XRPD (physical stability) ([1]; 1-week, listed as Hydrochloride salt of Compound 1): Turned into liquid
XRPD (physical stability) ([1]; 1-week, listed as hydrochloride salt of Compound 1): turned into a liquid phase
Purity % ([1]; 2-week): 99.22%
Purity % ([1]; Initial): 99.34%
XRPD (physical stability) ([1]; Initial): Crystalline
change in appearance [2]: turned into a liquid phase
Purity % (Photostability test; Photostability 1.2 million lux hours exposed): 98.75%
Purity % (Photostability test; Photostability 1.2 million lux hours unexposed): 99.35%
Purity % ([3]; Saline (0.9% NaCl)/40° C., 1-week, listed as Hydrochloride salt of Compound 1): 98.00%
Purity % ([3]; Saline (0.9% NaCl)/40° C., 1-week, listed as hydrochloride salt of Compound 1): ≤ 98%
Purity % ([3]; pH 6.8 phosphate buffer/40° C., 2-week, listed as Hydrochloride salt of Compound 1): 97.87%
Purity % ([3]; pH 6.8 phosphate buffer/40° C., 2-week, listed as hydrochloride salt of Compound 1): less than 98%
behaviour in natural conditions ([4]; natural conditions): exhibited deliquescence
DVS remark (adsorption at 90% RH) [4]: 49.5%
DVS remark (adsorption at 90% RH) ([4]; listed as hydrochloride salt of Compound 1): 49.5%
degree of corrosion of the sample [5]: corrosion occurred
Purity % ([6]; 30% H2O2 60° C. for 20 hours): 91.23%
appearance in aqueous media [7]: undissolved suspension form in some samples
Purity % ([8]; Saline (0.9% NaCl)/40° C., Initial): 99.43%
Purity % ([8]; pH 6.8 phosphate buffer/40° C., 1-week): 98.04%
Purity % ([8]; pH 6.8 phosphate buffer/40° C., Initial): 98.93%

CCCCCCCCCCn1cc(CCC(N)(CO)CO)nn1 [Compound 1, 2-Amino-2-(2-(1-decyl-1H-1,2,3-triazol-4-yl)ethyl) propane-1,3-diol]
pKa (pKa of the free base): 8.12
compensated suppression rate (%) of hERG channel currents ([9]; 1 μM): 9.94±1.96%
compensated suppression rate (%) of hERG channel currents ([9]; 3 μM): 13.98±4.48%
compensated suppression rate (%) of hERG channel currents ([9]; 10 μM): 35.03±12.09%
compensated suppression rate (%) of hERG channel currents ([9]; 30 μM): 82.62±7.31%
decomposition rate ([6]; oxidative stress conditions, after 20 hours): ≥ 8%

CCCCCCCCCCn1cc(CCC(N)(CO)CO)nn1 [Compound 1b, 2-amino-2-(2-(1-decyl-1H-1,2,3-triazol-4-yl)ethyl) propane-1,3-diol]
hygroscopicity (DVS evaluation, in words) ([4]; 90% RH, listed as Example 2): low hygroscopicity
DVS remark (adsorption at 90% RH) ([4]; listed as Example 2): 4.563%

CN(Cc1cnc2nc(N)nc(N)c2n1)c1ccc(C(=O)N[C@@H](CCC(=O)O)C(=O)O)cc1 [MTX, methotrexate, reference compound]
disease activity index (DAI) compared to negative control group (vehicle) ([10]; 3 mg/kg intraperitoneally three times a week): statistically significantly decreased

CCCCCCCCCCn1cc(CCC(N)(CO)CO)nn1.O=C(O)CCC(=O)O [compound 2]
DVS remark (adsorption at 90% RH) [4]: 19.42%

CC(=O)O.CCCCCCCCCCn1cc(CCC(N)(CO)CO)nn1 [compound 3]
DVS remark (adsorption at 90% RH) [4]: 34.33%

CC(=O)O.CCCCCCCCCCn1cc(CCC(N)(CO)CO)nn1 [compound 4]
DVS remark (adsorption at 90% RH) [4]: 33.67%

CCCCCCCCCCn1cc(CCC(N)(CO)CO)nn1.O=C(O)CCCCC(=O)O [compound 5]
DVS remark (adsorption at 90% RH) [4]: 22.46%

CCCCCCCCCCn1cc(CCC(N)(CO)CO)nn1.O=C(O)CC(O)(CC(=O)O)C(=O)O [compound 6]
DVS remark (adsorption at 90% RH) [4]: 22.80%

CC(C)Oc1ccc(-c2nc(-c3cccc4c3CC[C@@H]4NCCO)no2)cc1C#N [ozanimod, reference compound]
disease activity index (DAI) compared to negative control group (vehicle) ([10]; 5 mg/kg orally once a day): statistically significantly decreased

CCCc1nc2c(C)cc(-c3nc4ccccc4n3C)cc2n1Cc1ccc(-c2ccccc2C(=O)O)cc1 [telmisartan, reference compound]
kidney fibrosis (tubular-interstitial index) [11]: statistically significantly decreased
Kidney hydroxyproline [12]: statistically significantly reduced
